Source: US9062028B2, “Bicyclic nitrogen containing heteroaryl TGR5 receptor modulators” (Bristol-Myers Squibb Company, priority 2011, dated 2015)
Where a name gives a salt, the structure may show the parent alone.

Target: T1, recombinant human TGR5 (Homo sapiens, UniProt Q8TDU6)
T1 construct: expressed in transfected cells
T1 sequence (Q8TDU6 1-330): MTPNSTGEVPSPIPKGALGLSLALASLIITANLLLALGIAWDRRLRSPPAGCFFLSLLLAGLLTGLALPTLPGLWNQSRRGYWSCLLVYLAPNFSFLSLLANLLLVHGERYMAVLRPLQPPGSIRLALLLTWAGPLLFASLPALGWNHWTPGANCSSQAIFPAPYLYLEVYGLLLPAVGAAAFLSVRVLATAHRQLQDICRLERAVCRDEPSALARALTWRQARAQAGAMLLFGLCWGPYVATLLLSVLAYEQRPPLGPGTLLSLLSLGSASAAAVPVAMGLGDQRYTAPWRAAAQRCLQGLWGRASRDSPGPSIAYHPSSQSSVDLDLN
Assay: cAMP assay (cAMP accumulation, HTRF) in CHOK1 cells stably expressing TGR5
Format: cell-based
Conditions: CHOK1 cells stably expressing human TGR5, 30 minutes at RT, 1% DMSO
Protocol: The in vitro modulation of recombinant human TGR5 was determined as follows.
A human TGR5 expression construct of human TGR5 was integrated into the genome of a CHOK1 cell line (Invitrogen). Once a stable CHOK1 cell line was generated, the cells were incubated for 5-10 minutes in culture medium consisting of F-12 (Invitrogen#11765-047) supplemented with 10% fetal bovine serum.
On the day of the cAMP accumulation assay, cells stably expressing the […] TGR5 construct were centrifuged at 1000 rpm for 5 minutes. The medium was aspirated and the cells were resuspended in 5 mL of assay buffer (phosphate-buffered saline with Ca^2+ and Mg^2+, Invitrogen#14040). The cells were counted using 1:2 dilution and then adjusted to 0.4-0.5×10^6 cells/mL in assay buffer, if necessary. Isobutylmethylxanthine (IBMX, Sigma#I5879) was added via a 1:5000 dilution to make a 0.1 mM final concentration and then 10 μL of the media were transferred to each well of a 384 well poly-D-lysine coated solid white plate (BD #35-6661) pre-dotted with 100 nL of with the desired concentration of compound added from a concentrated stock dissolved in dimethyl sulfoxide (DMSO) to give a final concentration of 1% DMSO in the assay. The plates were covered and incubated for 30 minutes at RT. cAMP accumulation was measured using the CisBio homogeneous time resolved fluorescence (HTRF) assay kit (#62AM2PEC) following the manufacturer's protocol. Briefly, 5 μl each of the cAMP-HTRF fluorescence detection reagents were added to each well, and the samples were incubated for at least one hour at room temperature. Fluorescence was excited at 320 nm and measured at 665 and 620 nm using the Envision instrument (Perkin Elmer), the fluorescence ratio of 665/620 was calculated and converted to nanomolar concentrations of cAMP in each well by interpolation from a cAMP standard curve. The concentration-response curves and EC50 values were calculated with a four parameter logistic curve fit equation utilizing Excel/XLfit software (Microsoft and IDBS). The EC50 value was calculated as the concentration of agonist which increased the cAMP concentration to a value halfway between the baseline and the maximum.

| SMILES | EC50 |
| --- | --- |
| Cc1c(Cl)cccc1OCCCC(=O)N1CCSc2c(-c3cnn(Cc4c(F)cc(C(=O)NCCC(=O)O)cc4Cl)c3)cccc21 [Example 577, 3-(3-Chloro-4-((4-(4-(4-(3-chloro-2-methylphenoxy)butanoyl)-3,4-dihydro-2H-benzo[b][1,4]thiazin-8-yl)-1H-pyrazol-1-yl)methyl)-5-fluorobenzamido)propanoic acid] | 31 nM |
| Cc1c(Cl)cccc1OCCCC(=O)N1CCCOc2c(-c3cnn(Cc4c(F)cc(C(=O)NCS(=O)(=O)O)cc4Cl)c3)cccc21 [Example 702, (3-Chloro-4-((4-(5-(4-(3-chloro-2-methylphenoxy)butanoyl)-2,3,4,5-tetrahydrobenzo[b][1,4]oxazepin-9-yl)-1H-pyrazol-1-yl)methyl)-5-fluorobenzamido)methanesulfonic acid] | 46 nM |
| Cc1cccc(OCCCC(=O)N2C[C@@H]3C[C@@H]3c3c(-c4cnn(Cc5cccc(C(=O)NC[C@@H](N)C(=O)O)c5)c4)cccc32)c1C [Example 887, (R)-2-Amino-3-(3-((4-((1aR,7bS )-3-(4-(2,3-dimethylphenoxy)butanoyl)-1a,2,3,7b-tetrahydro-1H-cyclopropa[c]quinolin-7-yl)-1H-pyrazol-1-yl)methyl)benzamido)propanoic acid] | 184 nM |
| Cc1cccc(OCCCC(=O)N2CCCc3c(-c4cnn(C(C)c5cccc(NC(=O)NCS(=O)(=O)O)c5)c4)cccc32)c1C (centres unmarked) [Example 81, (3-(3-(1-(4-(1-(4-(2,3-Dimethylphenoxy)butanoyl)-1,2,3,4-tetrahydroquinolin-5-yl)-1H-pyrazol-1-yl)ethyl)phenyl)ureido)methanesulfonic acid] | 670 nM |
| Cc1cccc(OCCCC(=O)N2CCCc3c(-c4cnn(CCNC(=O)CC(=O)O)c4)cccc32)c1C [Example 110J, 3-(2-(4-(1-(4-(2,3-Dimethylphenoxy)butanoyl)-1,2,3,4-tetrahydroquinolin-5-yl)-1H-pyrazol-1-yl)ethylamino)-3-oxopropanoic acid] | 3300 nM |
| Cc1c(Cl)cccc1Oc1cccc(C(=O)N2CCCOc3c(-c4cnn(Cc5c(F)cc(C(=O)NCCC(=O)O)cc5Cl)c4)cccc32)c1 [Example 815] | 2000 nM |
| Cc1c(Cl)cccc1OC(C)(C)COC(=O)N1CCCOc2c(-c3cnn(Cc4c(F)cc(C(=O)NCCC(=O)O)cc4Cl)c3)cccc21 [Example 808, 3-(3-Chloro-4-((4-(5-((2-(3-chloro-2-methylphenoxy)-2-methylpropoxy)carbonyl)-2,3,4,5-tetrahydrobenzo[b][1,4]oxazepin-9-yl)-1H-pyrazol-1-yl)methyl)-5-fluorobenzamido)propanoic acid] | 1340 nM |
| Cc1cccc(OCCCC(=O)N2CCCc3c(-c4cnn(Cc5cccc(C(=O)N6CCC(CO)CC6)c5)c4)cccc32)c1C [Example 836, 4-(2,3-Dimethylphenoxy)-1-(5-(1-(3-(4-(hydroxymethyl)piperidine-1-carbonyl)benzyl)-1H-pyrazol-4-yl)-3,4-dihydroquinolin-1(2H)-yl)butan-1-one] | 173 nM |
| Cc1cccc(OCCCC(=O)N2CCCc3c(-c4cnn(Cc5ccc[n+](CC(=O)O)c5)c4)cccc32)c1C [Example 466, 1-(Carboxymethyl)-3-((4-(1-(4-(2,3-dimethylphenoxy)butanoyl)-1,2,3,4-tetrahydroquinolin-5-yl)-1H-pyrazol-1-yl)methyl)pyridinium, TFA salt] | 3930 nM |
| Cc1cccc(OCCCC(=O)N2CCCc3c(-c4cccc(COC(=O)NCC(C)(C)C(=O)O)c4)cccc32)c1C [Example 257, 3-((3-(1-(4-(2,3-Dimethylphenoxy)butanoyl)-1,2,3,4-tetrahydroquinolin-5-yl)benzyloxy)carbonylamino)-2,2-dimethylpropanoic acid] | 682 nM |
| Cc1cccc(OCCCC(=O)N2CCCc3c(-c4cccc(COC(=O)NC[C@H](NC(=N)N)C(=O)O)c4)cccc32)c1C [Example 168F, (S)-3-((3-(1-(4-(2,3-Dimethylphenoxy)butanoyl)-1,2,3,4-tetrahydroquinolin-5-yl)benzyloxy)carbonylamino)-2-guanidinopropanoic acid] | 590 nM |
| Cc1cccc(OCCCC(=O)N2C[C@@H]3C[C@@H]3c3c(-c4cnn(Cc5cccc(NC(=O)NCC(=O)O)c5)c4)cccc32)c1C (single isomer, unassigned) [Example 250] | 29 nM |
| Cc1cccc(OCCCC(=O)N2C[C@@H]3C[C@@H]3c3c(-c4cnn(Cc5cccc(NC(=O)NCCC(=O)O)c5)c4)cccc32)c1C (single isomer, unassigned) [Example 248] | 56 nM |
| Cc1cccc(OCCCC(=O)N2CCCc3c(-c4cnn(Cc5cccc(C(=O)N6CCCC(CO)C6)c5)c4)cccc32)c1C (centres unmarked) [Example 830, 4-(2,3-Dimethylphenoxy)-1-(5-(1-(3-(3-(hydroxymethyl)piperidine-1-carbonyl)benzyl)-1H-pyrazol-4-yl)-3,4-dihydroquinolin-1(2H)-yl)butan-1-one] | 176 nM |
| Cc1cccc(OCCCC(=O)N2CCCc3c(-c4cccc(COC(=O)N(CCCS(=O)(=O)O)C5CC5)c4)cccc32)c1C [Example 36, 3-(Cyclopropyl((3-(1-(4-(2,3-dimethylphenoxy)butanoyl)-1,2,3,4-tetrahydroquinolin-5-yl)benzyloxy)carbonyl)amino)propane-1-sulfonic acid] | 2910 nM |
| Cc1cccc(OCCCC(=O)N2CCCc3c(-c4cccc(COC(=O)N[C@H](Cc5c[nH]cn5)C(=O)O)c4)cccc32)c1C [Example 288, (R)-2-((3-(1-(4-(2,3-Dimethylphenoxy)butanoyl)-1,2,3,4-tetrahydroquinolin-5-yl)benzyloxy)carbonylamino)-3-(1H-imidazol-4-yl)propanoic acid] | 3950 nM |
| CCOC(=O)CNC(=O)Nc1cccc(Cn2cc(-c3cccc4c3[C@H]3C[C@H]3CN4C(=O)CCCOc3cccc(Cl)c3C)cn2)c1 [Example 914, Ethyl 2-(3-(3-((4-((1aR,7bS)-3-(4-(3-chloro-2-methylphenoxy)butanoyl)-1a,2,3,7b-tetrahydro-1H-cyclopropa[c]quinolin-7-yl)-1H-pyrazol-1-yl)methyl)phenyl)ureido)acetate] | 32 nM |
| Cc1cccc(OCCCC(=O)N2CCCc3c(-c4cnn(C(C)c5cccc(NC(=O)NCCS(=O)(=O)O)c5)c4)cccc32)c1C (centres unmarked) [Example 82, 2-(3-(3-(1-(4-(1-(4-(2,3-Dimethylphenoxy)butanoyl)-1,2,3,4-tetrahydroquinolin-5-yl)-1H-pyrazol-1-yl)ethyl)phenyl)ureido)ethanesulfonic acid] | 646 nM |
| Cc1c(Cl)cccc1OCCCC(=O)N1CCSc2c(-c3cnn(Cc4c(F)cc(C(=O)NCCS(=O)(=O)O)cc4Cl)c3)cccc21 [Example 574, 2-(3-Chloro-4-((4-(4-(4-(3-chloro-2-methylphenoxy)butanoyl)-3,4-dihydro-2H-benzo[b][1,4]thiazin-8-yl)-1H-pyrazol-1-yl)methyl)-5-fluorobenzamido) ethanesulfonic acid] | 23 nM |
| Cc1cccc(OCCCC(=O)N2C[C@@H]3C[C@@H]3c3c(-c4cnn(Cc5cccc(C(=O)NCCS(=O)(=O)O)c5)c4)cccc32)c1C (single isomer, unassigned) [Example 240] | 49 nM |
| Cc1cccc(OCCCC(=O)N2CCCOc3c(-c4cnn(Cc5cccc(N(C)C(=O)NCS(=O)(=O)O)c5)c4)cccc32)c1C [Example 526, (3-(3-((4-(5-(4-(2,3-Dimethylphenoxy)butanoyl)-2,3,4,5-tetrahydrobenzo [b][1,4]oxazepin-9-yl)-1H-pyrazol-1-yl)methyl)phenyl)-3-methylureido) methanesulfonic acid] | 1500 nM |
| Cc1c(Cl)cccc1OCCOC(=O)N1CCSc2c(-c3cnn(Cc4cccc(C(=O)NCCC(=O)O)c4Cl)c3)cccc21 [Example 628, 3-(2-Chloro-3-((4-(4-((2-(3-chloro-2-methylphenoxy)ethoxy)carbonyl)-3,4-dihydro-2H-benzo[b][1,4]thiazin-8-yl)-1H-pyrazol-1-yl)methyl)benzamido)propanoic acid] | 195 nM |
| Cc1cccc(OCCCC(=O)N2CCCc3c(-c4ccc(OCc5cccc(C(=O)O)c5)cn4)cccc32)c1C [Example 123, 3-((6-(1-(4-(2,3-Dimethylphenoxy)butanoyl)-1,2,3,4-tetrahydroquinolin-5-yl)pyridin-3-yloxy)methyl)benzoic acid] | 1270 nM |
